These results are taken from patent publication US20120190666A1, “Heteroaryl Compounds as PIKK Inhibitors” (Amgen Inc., priority 2009, published 2012).

Assay [1] deals with phosphorylation of Akt at Serine 473 in U87 MG cells. In words: pAkt AlphaScreen (U87 cell). The assay is classed as cell-based. To be noted: Homo sapiens, U-87 MG, 2 h; pAkt at Serine 473, U87 MG cells, two hours with compound. How it is done:
The pAkt AlphaScreen® assay (PerkinElmer, Waltham, Mass.) determines whether there is phosphorylation of Akt at Serine 473 by recruitment of a phosphospecific antibody. This assay was performed using U87 MG cells. The U87 growth media consists of MEM (Gibco, Carlsbad, Calif.) supplemented with 10% FBS (Gibco), 1× Non-Essential Amino Acids (Gibco,) and 1× Penicillin/Streptomycin/Glutamine (Gibco). The cells were maintained weekly using 0.05% Trypsin (Gibco) and replated in 150 mm TC— Treated Culture Dishes (Corning, Corning, N.Y.).
The first day of the assay, the adherent cells were trypsinized, media was added to the loose cells and cells were mixed to a homogenous mixture. 0.5 ml of the homogenous mixture was counted on the Beckman Coulter® Vi-Cell™ XR (Fullerton, Calif.). 50 frames of cells were counted and the number of viable cells was determined. The cells were then diluted to 0.25 million cells per ml, and centrifuged at 200 rcf for 5 minutes. The media was removed and the cells were reconstituted in fresh media for plating. The cells were plated at 20 μl per well on the PerkinElmer® FlexDrop PLUS in Low Volume 384 Well White Tissue Culture Plates (Corning) with a final cell density of 5K cells per well. The plates were incubated overnight at 37° Celsius, 5% CO2.
On the second day, the compound plates were prepared, the cells were treated with compound and the pAkt reaction mix was added to the cell lysate. 384 well compound plates were prepared containing 1 μl of compound per well starting at 5 mM and diluted 1:2 across the row, resulting in a 22 well serial dilution. 39 μl of growth media was added to the compound plate in rows 1-22 using the PerkinElmer® FlexDrop PLUS resulting in a DMSO concentration of 2.5%. The cell plates and diluted compound plates were put onto the VELOCITY11™ VPREP™ 384 ST where the compound plate was mixed and 5 μl of serially diluted compound or controls was added to the cell plate. The final concentration of the compounds was 25 μM serially diluted to 11.9 pM in 0.5% DMSO.
The cell plates were then incubated with compound for two hours at 37° C., 5% CO2. After two hours, the media in the cell plates was aspirated using the BioTek® ELx405HT plate washer (Winooski, Vt.) removing the majority of media and compound without disturbing the adherent U87 cells. The following assay reagents are components of the SureFire® Akt (Ser 473) Phosphorylation 50K Point Kit (TGR BioSciences, Adelaide, Austalia) and an IgG Detection Kit (PerkinElmer, Waltham, Mass.). 5 μl of 1× Lysis Buffer was added to each well using the PerkinElmer® FlexDrop PLUS. The plates were then incubated at room temperature on a shaker for ten minutes. The AlphaScreen® reaction was prepared under low light conditions (subdued or green light) including p-Aid (Ser 473) Reaction Buffer, Dilution Buffer, Activation Buffer, Acceptor Beads and Donor Beads at a ratio of 40:20:10:1:1 respectively. The AlphaScreen® reaction was added to the cell lysate at 6 μl per well using the PerkinElmer® FlexDrop PLUS. The plates were placed in a humid environment to reduce edge effects and incubated overnight at room temperature with restricted air flow in the dark.
On the final day of the experiment, the plates were read on the PerkinElmer® EnVision™ 2103 Multilable Reader using the standard AlphaScreen® readout. The POC is calculated and the data is analyzed to report the IC50 IP for pAkt at Serine 473.
Activity data for the compounds tested in the PI3K cell based Akt assay is provided in Table 1 under the column heading U87
In general terms: In Alpha technology, singlet oxygen from a donor bead excites a nearby acceptor bead.

The target in another assay is T1, PI3Kα (Homo sapiens, UniProt P42336).
T1 construct: Full length p110 subunits of PI3K α, β and δ, N-terminally labeled with polyHis tag; polyHis (N); made in house; host or cells: Sf9 insect cells (baculovirus)
As to the kind of experiment: In vitro PI3K AlphaScreen assay, PI3Kα. The format is biochemical. The following applies: PI(4,5)P2 substrate, 20 minutes at room temperature, read-out: P13Kalpha IC50 um. As to the method: The PI3K AlphaScreen® assay (PerkinElmer, Waltham, Mass.) measures the activity of a panel of four phosphoinositide 3-kinases: PI3Kα, PI3KIβ, PI3Kγ, and PI3Kδ. Each of these enzymes phosphorylates the 3′-hydroxyl group on phosphatidylinositiol (4,5)-bisphosphate (PIP2) to produce phosphatidylinositol (3,4,5)-trisphosphate (PIP3). This phosphorylation activity is measured using a GST-tagged PIP3 binding protein (Echelon Biosciences, Salt Lake City, Utah), an anti-GST-tagged Acceptor bead, and streptavidin-Donor bead. The interaction of biotinylated-PIP3 analog (IP4) and the PIP3 binding protein brings both Acceptor and Donor beads together producing, upon excitation of the Donor beads at 680 nm, a singlet oxygen species leading to the luminescent AlphaScreen® signal. When PIP3 is produced via phosphorylation of PIP2 by a PI3K, PIP3 competes with biotinylated-PIP3 analog (IP4) for binding to the PIP3 binding protein. In the absence of this interaction, proximity of the Donor and Acceptor beads is decreased, producing a loss of luminescent signal which is […] to PI3K activity. […] The enzyme reaction buffer is made using sterile water (Baxter, Deerfield, Ill.) and 50 mM Tris HCl pH 7, 14 mM MgCl2, 2 mM sodium cholate, and 100 mM NaCl. 2 mM DTT is added fresh the day of the experiment. The AlphaScreen® reaction buffer is made using sterile water and 10 mM Tris HCl pH 7.5, 150 mM NaCl, 0.10% Tween 20, and 30 mM EDTA. 1 mM DTT is added fresh the day of the experiment. The source plates for this assay are 384-well Greiner clear polypropylene plates containing test compounds at 5 mM and diluted 1:2 over 22 points. Columns 23 and 24 contain only DMSO as these are designated for positive and negative controls. Source plates are replicated into 384-well Optiplates (PerkinElmer, Waltham, Mass.), 0.5 μL/well, to make assay-ready plates. The different PI3K isoforms are each diluted in enzyme reaction buffer to 2× working solutions. PI3Kα is diluted to 1.6 nM, PI3Kβ is diluted to 0.8 nM, PI3Kγ is diluted to 15 nM, and PI3Kδ is diluted to 1.6 nM. Two different 2× substrate solutions are made in enzyme reaction buffer. In one solution, PI(4,5)P2 (Echelon Biosciences, Salt Lake City, Utah) is diluted to 10 μM and ATP is diluted to 20 μM. This solution is used in the assays testing PI3Kα and PI3Kβ. In a second solution, PI(4,5)P2 is diluted to 10 μM and ATP is diluted to 80 μM. This solution is used in the assays testing PI3Kγ and PI3Kδ. The AlphaScreen® reaction solutions are made using beads from the anti-GST AlphaScreen® kit (PerkinElmer, Waltham, Mass.). Two solutions are made in Alphascreen reaction buffer to 4× working concentrations. In one solution, biotinylated-IP4 (Echelon Biosciences, Salt Lake City, Utah) is diluted to 40 nM and streptavadin-Donor Beads are diluted to 80 μg/mL. In the second solution, PIP3-binding protein (Echelon Biosciences, Salt Lake City, Utah) is diluted to 40 nM and anti-GST-Acceptor Beads are diluted to 80 μg/mL. 10 μL/well of enzyme reaction buffer is added to Column 24 of the assay ready plates in place of enzyme. This is done for plates in the PI3Kα, β, and δ assays. Using a 384-well dispensing Multidrop (Titertek, Huntsville, Ala.), 10 μL/well of 2× enzyme (PI3Kα, β, δ) is added to Columns 1-23 of the appropriate assay ready plates (for PI3Kγ 10 μL is added to Columns 1-24). 10 μL/well of the appropriate substrate solution (the solution with 20 μM ATP for PI3Kα and β assays, and the solution with […] for PI3Kγ and δ assays) is then added to Columns 1-24 of the plates. Plates are then incubated at room temperature for 20 minutes. In the dark, 10 μL/well of the Donor Bead solution is added to Columns 1-24 of the plates to quench the enzyme reaction. The plates are incubated at room temperature for 30 minutes. Still in the dark, 10 μL/well of the Acceptor Bead solution is also added to Columns 1-24 of the plates. The plates are then incubated in the dark for 1.5 hours.

T1 sequence (P42336 whole entry): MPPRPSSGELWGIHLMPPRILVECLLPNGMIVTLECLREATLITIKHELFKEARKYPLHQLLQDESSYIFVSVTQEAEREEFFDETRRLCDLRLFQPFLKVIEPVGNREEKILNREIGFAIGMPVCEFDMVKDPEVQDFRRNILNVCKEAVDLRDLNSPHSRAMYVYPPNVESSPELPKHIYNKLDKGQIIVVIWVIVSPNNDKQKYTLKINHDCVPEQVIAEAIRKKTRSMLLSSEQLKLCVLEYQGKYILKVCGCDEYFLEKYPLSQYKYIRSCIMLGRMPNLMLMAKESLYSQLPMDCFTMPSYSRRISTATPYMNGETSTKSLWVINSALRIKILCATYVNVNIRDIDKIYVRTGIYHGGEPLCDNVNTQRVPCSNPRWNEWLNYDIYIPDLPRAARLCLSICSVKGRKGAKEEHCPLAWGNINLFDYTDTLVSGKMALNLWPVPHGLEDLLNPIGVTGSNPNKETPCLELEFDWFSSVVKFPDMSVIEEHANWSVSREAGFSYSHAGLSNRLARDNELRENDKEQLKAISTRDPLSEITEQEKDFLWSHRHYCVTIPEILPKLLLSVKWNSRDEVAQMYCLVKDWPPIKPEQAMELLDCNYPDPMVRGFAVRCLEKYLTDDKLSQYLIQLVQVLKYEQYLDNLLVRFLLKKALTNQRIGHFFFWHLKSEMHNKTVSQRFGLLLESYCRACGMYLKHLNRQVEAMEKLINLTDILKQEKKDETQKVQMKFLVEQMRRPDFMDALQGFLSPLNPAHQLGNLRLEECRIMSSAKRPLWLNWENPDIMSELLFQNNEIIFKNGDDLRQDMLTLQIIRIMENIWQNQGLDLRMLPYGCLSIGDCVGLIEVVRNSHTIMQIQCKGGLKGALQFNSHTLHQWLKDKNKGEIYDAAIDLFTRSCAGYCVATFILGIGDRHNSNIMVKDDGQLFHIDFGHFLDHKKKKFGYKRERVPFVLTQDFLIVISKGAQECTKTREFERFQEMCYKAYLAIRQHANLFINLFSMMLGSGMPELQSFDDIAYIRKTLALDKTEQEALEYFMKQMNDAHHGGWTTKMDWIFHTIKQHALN
T1 sequence (P27986 whole entry partner): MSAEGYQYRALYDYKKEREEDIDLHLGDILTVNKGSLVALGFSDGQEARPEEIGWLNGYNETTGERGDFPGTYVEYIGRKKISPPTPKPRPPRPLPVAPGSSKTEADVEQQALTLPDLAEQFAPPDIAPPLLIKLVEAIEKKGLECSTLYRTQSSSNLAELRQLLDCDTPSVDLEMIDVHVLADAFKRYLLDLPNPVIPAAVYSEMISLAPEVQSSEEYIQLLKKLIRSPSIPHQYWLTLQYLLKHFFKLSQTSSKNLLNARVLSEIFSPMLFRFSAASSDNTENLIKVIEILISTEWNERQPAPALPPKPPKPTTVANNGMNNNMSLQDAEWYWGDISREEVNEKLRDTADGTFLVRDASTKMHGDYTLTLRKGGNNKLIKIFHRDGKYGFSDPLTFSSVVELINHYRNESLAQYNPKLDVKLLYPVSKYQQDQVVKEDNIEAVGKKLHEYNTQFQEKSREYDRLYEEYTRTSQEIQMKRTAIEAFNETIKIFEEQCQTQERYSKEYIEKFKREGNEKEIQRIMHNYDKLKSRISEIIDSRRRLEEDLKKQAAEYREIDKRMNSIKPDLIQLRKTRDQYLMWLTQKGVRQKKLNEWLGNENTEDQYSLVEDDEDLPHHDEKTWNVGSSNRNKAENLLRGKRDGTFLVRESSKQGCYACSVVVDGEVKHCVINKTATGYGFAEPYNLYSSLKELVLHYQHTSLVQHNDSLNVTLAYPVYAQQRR

Consider `COc1ccc(Nc2nc3ccccn3c2-c2nc(C)nc(N)n2)cn1` [Cpd 4, 3-(4-amino-6-methyl-1,3,5-triazin-2-yl)-N-(6-methoxypyridin-3-yl)imidazo[1,2-a]pyridin-2-amine], for which the concentration for half-maximal inhibition (IC50) in assay [1] stood at 40 nM. Still for that read-out and setting: under `COCCN1CCN(c2ccc3nc(Nc4cnc(OC)c(F)c4)c(-c4nc(C)nc(N)n4)n3c2)CC1` [Cpd 29, 3-(4-amino-6-methyl-1,3,5-triazin-2-yl)-N-(5-fluoro-6-methoxy-3-pyridinyl)-6-(4-(2-methoxyethyl)-1-piperazinyl)imidazo[1,2-a]pyridin-2-amine] stands 26 nM. On to `CNc1cc(-c2c(Nc3cc[nH]n3)nc3cc(N4CCOCC4)cnn23)nc(C)n1` [Cpd 88, 3-(2-methyl-6-(methylamino)-4-pyrimidinyl)-7-(4-morpholinyl)-N-1H-pyrazol-3-ylimidazo[1,2-b]pyridazin-2-amine], for which the values for the IC50 (on PI3Kα; in assay [1]) were 4500 nM and 1630 nM, respectively.

Consider `Cc1nc(N)cc(-c2c(Nc3cccc(S(C)(=O)=O)c3)nc3cccnn23)n1` [Cpd 94, 3-(6-amino-2-methyl-4-pyrimidinyl)-N-(3-(methylsulfonyl)phenyl)imidazo[1,2-b]pyridazin-2-amine], for which the 50% inhibitory concentration (IC50) in assay [1] was determined as 3920 nM. As for `Cc1nc(NC(=O)Cc2cccc(F)c2)cc(-c2c(Nc3ccn(C)n3)nc3ccccn23)n1` [Cpd 128], the figures for the IC50 (at PI3Kα; in assay [1]) were 5030 nM and 3160 nM, respectively. Taken in the same sequence, the figures for `Cc1nc(NC(=O)Cc2ccc(F)cc2F)cc(-c2c(Nc3ccn(C)n3)nc3cccnn23)n1` [Cpd 129, 2-(2,4-difluorophenyl)-N-(2-methyl-6-(2-((1-methyl-1H-pyrazol-3-yl)amino)imidazo[1,2-b]pyridazin-3-yl)-4-pyrimidinyl)acetamide] were 4940 nM and 1470 nM. With `Cc1nc(Nc2ccc(N3CCOCC3)nn2)cc(-c2c(Nc3ccn(C)n3)nc3cccnn23)n1` [Cpd 149, 3-(2-methyl-6-((6-(4-morpholinyl)-3-pyridazinyl)amino)-4-pyrimidinyl)-N-(1-methyl-1H-pyrazol-3-yl)imidazo[1,2-b]pyridazin-2-amine], in assay [1], the half-maximal inhibitory concentration (IC50) stood at 280 nM. With `Cc1nc(N)cc(-c2c(Nc3ccn(C(=O)Nc4cc(C(F)(F)F)ccc4Cl)n3)nc3cccnn23)n1` [Cpd 246, 3-((3-(6-amino-2-methyl-4-pyrimidinyl)imidazo[1,2-b]pyridazin-2-yl)amino)-N-(2-chloro-5-(trifluoromethyl)phenyl)-1H-pyrazole-1-carboxamide], the IC50 at PI3Kα was 15800 nM. For the molecule `COCCNC(=O)n1ccc(Nc2nc3cccnn3c2-c2cc(N)nc(C)n2)n1` [Cpd 264], the IC50 amounted to 33400 nM on PI3Kα and 3150 nM in assay [1].

On to `Cc1nc(N)cc(-c2c(Nc3ccc(N4CC(O)C4)nc3)nc3cccnn23)n1` [Cpd 272, 1-(5-((3-(6-amino-2-methyl-4-pyrimidinyl)imidazo[1,2-b]pyridazin-2-yl)amino)-2-pyridinyl)-3-azetidinol], for which the figures for the IC50 (on PI3Kα; in assay [1]) were 320 nM and 110 nM, respectively.

In the case of `COc1ccc(Nc2nc3ccc(N4CCN(C(C)=O)CC4)cn3c2-c2nc(C)nc(N)n2)cn1` [Cpd 285, 6-(4-acetyl-1-piperazinyl)-3-(4-amino-6-methyl-1,3,5-triazin-2-yl)-N-(6-methoxy-3-pyridinyl)imidazo[1,2-a]pyridin-2-amine], the 50% inhibitory concentration (IC50) on PI3Kα amounted to 90 nM. For the molecule `Cc1nc(N)cc(-c2c(Nc3cccc(NC(=O)NC4CC4)c3)nc3cccnn23)n1` [Cpd 316, 1-(3-((3-(6-amino-2-methyl-4-pyrimidinyl)imidazo[1,2-b]pyridazin-2-yl)amino)phenyl)-3-cyclopropylurea], the IC50 in assay [1] was 950 nM. In the case of `Cc1nc(N)cc(-c2c(Nc3cccc(NC(=O)Cc4ccccc4)c3)nc3ccccn23)n1` [Cpd 318, N-(3-((3-(6-amino-2-methyl-4-pyrimidinyl)imidazo[1,2-a]pyridin-2-yl)amino)phenyl)-2-phenylacetamide], the IC50 at PI3Kα came out at 12000 nM.

The IC50 is the concentration at which inhibition is half-maximal.
